By log P is commonly meant a log measure of how a compound divides between an organic and an aqueous phase.

Data on 3 compounds can be found in US9789211B2, “Methods and compositions for positron emission tomography myocardial perfusion imaging” (UNIVERSITY OF SOUTHERN CALIFORNIA, priority 2012, dated 2017).

For data set [1] the following is noted: cited from earlier work.
Data set [2] relates to H345 lung carcinoma cells. The data set is described as follows: mitochondrial membrane potential-dependent cellular uptake with CCCP treatment. The class given is cell-based. Particulars: H345 cells incubated 10 min with CCCP before adding tracers. The procedure:
Uptake kinetics of ^64Cu-Sar-TPP and 3H-TPP (standard) may be examined in H345 lung carcinoma cells. In brief, H345 cells will be harvested by trypsinization and washed twice with cold PBS buffer. Cells are counted and re-suspended in loading buffer at a concentration of 2×10^6 cells/mL. The cell suspension (0.5 mL) may be transferred to Eppendorf tubes and incubated at 37° C. for 60 min. An equal volume of loading solution containing 0.5-5 nM ^64Cu-Sar-TPP and 3H-TPP will be added. The sample may be centrifuged (800 rpm, 5 min) to terminate the uptake. Aliquots of the supernatant are then obtained and the remaining solution is aspirated. The radioactivity of the pellet and supernatant is counted together with standard solution ( 1/1,000) in a gamma counter. After completion of gamma counting, scintillation counting are performed after the complete decay of ^64Cu (two weeks). Cell uptake values of ^64Cu-Sar-TPP in H345 cells may be determined over incubation periods of 0.5, 1, 2, 4, and 24 h. […] The mitochondrial membrane potential-dependent cellular uptake of ^64Cu-Sar-TPP will be further assessed using the H345 cells treated with carbonyl cyanide m-chlorophenylhydrazone (CCCP). […] Only the ^64Cu-Sar-TPP probes that are sensitive towards CCCP will be evaluated in future investigation because this experiment supports the tracer uptakes are depend on mitochondria potential as we proposed above.

For data set [3] the following is noted: cited from earlier work. This is another data set of the same source.

With “^64/62Cu-pyruvaldehyde-bis(N4-methyl-thiosemicarbazone) [[^64/62Cu]-PTSM]”, in data set [1] (association with serum albumin), the “clearance from the blood pool” value is “clears slowly”. For the same compound, in data set [1] (spillover into the inferior wall of myocardial), the liver uptake entry is reported as “high liver uptake”.

On to `N#CC(C#N)=NNc1cccc(Cl)c1` [CCCP, carbonyl cyanide m-chlorophenylhydrazone], for which the “cell-associated activity of ^64Cu-Sar-TPP and 3H-TPP” value in data set [2] is on record as “dose dependent decrease”.

Turning to `[C-]#[N+]CC(C)(C)OC.[C-]#[N+]CC(C)(C)OC.[C-]#[N+]CC(C)(C)OC.[C-]#[N+]CC(C)(C)OC.[C-]#[N+]CC(C)(C)OC.[C-]#[N+]CC(C)(C)OC.[Tc]` [^99mTc-sestamibi], the “log P” value in data set [3] is given as 1.1.
